Data set [1] concerns the target T1, αvβ3 integrin (Homo sapiens, UniProt P05106+P06756).
T1 construct: host or cells: U-87 MG glioblastoma cells
The experiment in a line: αvβ3 integrin competitive binding assay with U-87 MG cells, radioligand [^125I]c[RGDy(3-I)V]. As to conditions: competitive inhibition of [^125I]c[RGDy(3-I)V] binding, mean ± SD for three independent experiments. The method, then:
The affinity of 6 and E[c(RGDfK)]2, a dimer RGD peptide without iodine, for αvβ3 integrin was determined via a competitive binding assay with U-87 MG cells. Binding of the radioligand [^125I]c[RGDy(3-I)V] to αvβ3 integrin was inhibited by 6 and E[c(RGDfK)]2 in a concentration-dependent manner.
Binding affinities of synthesized peptides E[c(RGDfK)]2 and 6 for αvβ3 integrin were evaluated by competitive inhibition between the peptides and [^125I]c[RGDy(3-I)V], which was prepared by Fmoc solid-phase synthesis and following ^125I-labeling with chloramine-T method, to αvβ3 integrin according to a previously reported procedure. The peptides’ half maximal inhibitory concentration (IC50) values were calculated by curve fitting with nonlinear regression using GraphPad Prism 8.4.3 (GraphPad Software Inc., San Diego, CA, USA). Each data point is the average of four determinations, and IC50 values were expressed as mean ± standard deviation (SD) from three independent experiments.
Figure 2 αvβ3 Integrin binding assay. Representative displacement curves of the competitive binding of [^125I]c[RGDy(3-I)V] to αvβ3 integrin on U-87 MG cells with E[c(RGDfK)]2 and 6. Error bars represent SD.

For data set [2], the system named is U-87 MG tumor bearing mice. The following applies: mouse. Here is the method: A comparison of the biodistribution experiments in U-87 MG tumor mice between [^125I]6 and [^125I]c[RGDf(4-I)K] is shown in Figure 3 and Table S1. [^125I]6 was highly accumulated in the tumor based on the results of the in vitro assay. […] (2.93 ± 0.08% ID/g). The accumulation of [^125I]6 in the liver and intestines also tended to be higher than that of [^125I]c[RGDf(4-I)K]. Meanwhile, it is known that the radioactive accumulation in the thyroid gland and stomach is an index of deiodination of radioiodine labeled probes.
Experiments with animals were conducted in strict accordance with the Guidelines for the Care and Use of Laboratory Animals of Kanazawa University. The experimental protocols were approved by the Committee on Animal Experimentation of Kanazawa University. The animals were housed with free access to food and water at 23 °C with a 12 h alternating light/dark schedule. We used a U-87 MG cell line because it was reported that the U-87 MG highly expresses αvβ3 integrin [26]. […] The radioactivity counts of ^125I was determined with an auto-well gamma counter (ARC-7010, Hitachi, Ltd., Tokyo, Japan) and corrected for background radiation and physical decay during counting. […]
Table S1. Biodistribution of radioactivity after intravenous injection of […]
Expressed as % injected dose per gram. […]
‡ Expressed as % injected dose.
Significance was determined by paired Student’s t test. […]

Data set [3] is described as follows: In vitro stability in PBS(−). It is filed as physicochemical. The following applies: PBS(−) pH 7.4, 37 °C, 24 h, 37 kBq tracer in 100 µL, RP-HPLC; mean ± SD for three samples. The method, then: An in vitro stability experiment of [^125I]6 in PBS(−) (pH 7.4) solution was performed. After incubation at 37 °C for 24 h, 90.8 ± 0.7% (mean ± SD for three samples) of its radioactivity remained intact.
To evaluate the stability of [^125I]6 in PBS(−), 10 µL of each tracer (37 kBq) was added to 90 µL of PBS(−) (pH 7.4), and the solutions were incubated at 37 °C for 24 h. After incubation, the samples were drawn, and the radioactivity was analyzed by RP-HPLC.

Data set [4] is classed as physicochemical. The method, then: (§1) An experimental Log p value of [^125I]6 was −2.33 ± 0.04. The value was higher than that of the monomeric radioiodine-labeled RGD peptide [^125I]c[RGDf(4-I)K] (−3.04 ± 0.46) from our previous study.
The partition coefficient of [^125I]6 was measured as described previously. The radioactivity in each phase was measured with an auto-well gamma counter. The partition coefficient was determined by calculating the ratio of 1-octanol to the buffer and was expressed as a common logarithm (log P).

The conditions of data set [5]: cited from earlier work.
Text: as §1

Data set [6] addresses T1, αvβ3 integrin. The following applies: monomer RGD peptide; cited from earlier work. Here is the method:
The binding affinity of 6 for αvβ3 integrin (IC50: 1.2 ± 0.5 nM) was higher than that of c[RGDf(4-I)K] […] It was reported that IC50 values of dimeric RGD peptides in the αvβ3 integrin competitive binding assay were an order lower than those of original monomeric RGD peptides. Thus, the IC50 value of dimerizing peptide 6 was consistent with those described in previous studies.

Where two headings read alike, the source gives them in different places.

The term IC50 denotes the concentration that inhibits the measured activity by half. On αvβ3 integrin [1], `N=C(N)NCCC[C@@H]1NC(=O)[C@H](CCCCNC(=O)CC[C@H](N)C(=O)NCCCC[C@@H]2NC(=O)[C@@H](Cc3ccc(I)cc3)NC(=O)[C@H](CC(=O)O)NC(=O)CNC(=O)[C@H](CCCNC(=N)N)NC2=O)NC(=O)[C@@H](Cc2ccccc2)NC(=O)[C@H](CC(=O)O)NC(=O)CNC1=O` [Compound 6, E[c(RGDfK)]{c[RGDf(4-I)K]}] registered an IC50 of 1.2 ± 0.5 nM.
For the compound “E[c(RGDfK)]{[^125I]c[RGDf(4-I)K]}2 [[^125I]6]”, in data set [2], the “in vivo deiodination (radioactivity in neck containing thyroid glands and stomach)” value is “hardly occurred”. Also, the radioactivity remained intact in data set [3] is reported as 90.8 ± 0.7%. Besides, the “Log p (partition coefficient)” value in data set [4] was −2.33 ± 0.04.
Take [^125I]c[RGDf(4-I)K]: the “Log p (partition coefficient)” value in data set [5] is recorded as −3.04 ± 0.46.
c[RGDf(4-I)K]: the IC50 with αvβ3 integrin [6] was 23.2 ± 17.2 nM.

The values above are taken from publication PMC8539346, “Synthesis and Evaluation of a Dimeric RGD Peptide as a Preliminary Study for Radiotheranostics with Radiohalogens” (Molecules, 2021).
